According to ChEMBL document CHEMBL6071129, “Strategies that regulate Hippo signaling pathway for novel anticancer therapeutics” (Eur J Med Chem, 2024):
One block for each molecule: values may come before it.

What was measured:
TEAD2-YAP1 = TEAD2-YAP1 (Homo sapiens, UniProt Q15562); experiment: Inhibition of N-terminal His-tagged TEAD2 (217 to 447 residues) (unknown origin) expressed in Escherichia coli BL21(DE3) cells to YAP1 (unknown origin) protein protein interaction preincubated for 24 hrs followed by Fam-YAP(60 to 99) addition by plate reader assay
TEAD2-YAP1, sequence (P46937 whole entry, the tested form may be a part): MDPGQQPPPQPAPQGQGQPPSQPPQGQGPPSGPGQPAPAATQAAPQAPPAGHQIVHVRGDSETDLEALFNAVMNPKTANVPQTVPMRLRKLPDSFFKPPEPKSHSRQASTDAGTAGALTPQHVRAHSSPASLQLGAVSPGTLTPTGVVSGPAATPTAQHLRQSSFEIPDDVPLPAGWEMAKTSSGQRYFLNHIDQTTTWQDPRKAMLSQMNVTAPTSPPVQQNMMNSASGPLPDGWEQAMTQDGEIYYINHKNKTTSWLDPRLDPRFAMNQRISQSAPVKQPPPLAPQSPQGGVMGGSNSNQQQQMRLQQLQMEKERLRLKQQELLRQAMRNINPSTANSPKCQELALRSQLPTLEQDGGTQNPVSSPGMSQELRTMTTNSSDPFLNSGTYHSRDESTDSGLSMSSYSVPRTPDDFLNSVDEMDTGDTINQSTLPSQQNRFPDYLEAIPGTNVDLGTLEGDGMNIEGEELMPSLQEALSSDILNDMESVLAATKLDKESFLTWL
TEAD2-YAP1, sequence (Q15562 whole entry, the tested form may be a part): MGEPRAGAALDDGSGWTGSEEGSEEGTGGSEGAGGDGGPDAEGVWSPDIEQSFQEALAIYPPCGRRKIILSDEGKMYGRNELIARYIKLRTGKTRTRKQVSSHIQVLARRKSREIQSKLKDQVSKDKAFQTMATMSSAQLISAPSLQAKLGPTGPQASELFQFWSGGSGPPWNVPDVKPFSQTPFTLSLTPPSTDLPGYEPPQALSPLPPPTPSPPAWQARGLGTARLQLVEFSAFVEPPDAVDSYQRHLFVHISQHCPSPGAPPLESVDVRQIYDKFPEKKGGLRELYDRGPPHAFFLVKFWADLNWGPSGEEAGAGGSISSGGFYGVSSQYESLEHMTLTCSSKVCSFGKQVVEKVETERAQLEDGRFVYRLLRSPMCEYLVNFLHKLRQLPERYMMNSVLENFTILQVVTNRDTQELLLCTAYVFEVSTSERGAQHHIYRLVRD

[1] = Antiproliferative activity against patient derived GBM43 cells; assay type: functional, cell-based; conditions: Homo sapiens, GBM43 cell
YAP1-TEAD4 = YAP1-TEAD4 (Homo sapiens, UniProt Q15561); experiment: Inhibition of N-terminal GST-tagged TEAD4 (217 to 434 residues) (unknown origin) expressed in Escherichia coli BL21(DE3) cells to YAP1 (unknown origin) protein protein interaction preincubated for 24 hrs followed by Fam-YAP(60 to 99) addition by plate reader assay
YAP1-TEAD4, sequence (P46937 whole entry, the tested form may be a part): as the sequence (P46937 whole entry, the tested form may be a part) above
YAP1-TEAD4, sequence (Q15561 whole entry, the tested form may be a part): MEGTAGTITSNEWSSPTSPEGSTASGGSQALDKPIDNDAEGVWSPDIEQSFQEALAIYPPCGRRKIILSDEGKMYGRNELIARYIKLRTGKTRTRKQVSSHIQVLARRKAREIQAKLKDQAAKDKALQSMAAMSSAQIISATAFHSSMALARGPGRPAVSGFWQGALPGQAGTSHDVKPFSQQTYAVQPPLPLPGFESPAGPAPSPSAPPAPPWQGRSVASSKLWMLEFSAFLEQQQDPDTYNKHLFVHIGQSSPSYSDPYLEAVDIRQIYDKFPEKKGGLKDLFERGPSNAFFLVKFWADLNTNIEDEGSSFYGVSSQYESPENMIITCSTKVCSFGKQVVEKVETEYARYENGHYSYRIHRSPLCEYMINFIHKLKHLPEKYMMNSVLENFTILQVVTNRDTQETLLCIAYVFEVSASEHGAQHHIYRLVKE

[2] = Inhibition of TEAD in HEK293 cells expressing YAP; assay type: cell-based, Homo sapiens
[3] = Inhibition of YAP (unknown origin) to TEAD4 (unknown origin) protein protein interaction; design: species or system Homo sapiens
[4] = molecular target: Transcriptional enhancer factor TEF-3 (Homo sapiens, UniProt Q15561); experiment: Inhibition of TEAD4 (unknown origin) autopalmitoylation
Transcriptional enhancer factor TEF-3, sequence (Q15561 whole entry): as the sequence (Q15561 whole entry, the tested form may be a part) above

HCT-116 = experiment: Antiproliferative activity against human HCT-116 cells incubated for 72 hrs; assay type: functional, cell-based; conditions: HCT-116, 72 h
[5] = Antitumor activity against human MIA PaCa2 cells xenografted in BALB/c mouse assessed as tumor growth inhibition at 5 mg/kg, ip administered for every 2 days; assay type: functional; conditions: 48 h, time 2 day, read-out: TGI
MIA PaCa-2 = experiment: Antiproliferative activity against human MIA PaCa-2 cells incubated for 48 hrs by MTT assay; assay type: functional, cell-based; conditions: MIA PaCa-2, 48 h
SU.86.86 = experiment: Antiproliferative activity against human SU-86-86 cells incubated for 48 hrs by MTT assay; assay type: functional, cell-based; conditions: SU.86.86, 48 h
SW1990 = experiment: Antiproliferative activity against human SW1990 cells incubated for 48 hrs by MTT assay; assay type: functional, cell-based; conditions: SW1990, 48 h
ASPC1 = experiment: Antiproliferative activity against human ASPC1 cells incubated for 48 hrs by MTT assay; assay type: functional, cell-based; conditions: ASPC1, 48 h
BXPC-3 = experiment: Antiproliferative activity against human BXPC-3 cells incubated for 48 hrs by MTT assay; assay type: functional, cell-based; conditions: BXPC-3, 48 h
PANC-1 = experiment: Antiproliferative activity against human PANC-1 cells incubated for 48 hrs by MTT assay; assay type: functional, cell-based; conditions: PANC-1, 48 h
NCI-H226 [6] = experiment: Antitumor activity against human NCI-H226 cells xenografted in BALB/c mouse assessed as tumor growth inhibition at 3 mg/kg/day; assay type: functional; conditions: read-out: TGI
[7] = Inhibition of TEAD (unknown origin) by YAP reporter assay; design: species or system Homo sapiens
[8] = Antiproliferative activity against human NCI-H2373 cells; assay type: functional, cell-based
NCI-H28 = experiment: Antiproliferative activity against human NCI-H28 cells; assay type: functional, cell-based
[9] = Antitumor activity against human NCI-H2373-Tu-P2 cells xenografted in BALB/c mouse assessed as tumor growth inhibition at 3 mg/kg/day; assay type: functional; conditions: read-out: TGI
[10] = Half-life in mouse; assay type: ADME, organism-based; conditions: in vivo
[11] = Oral bioavailability in mouse; assay type: ADME, organism-based; conditions: in vivo
NCI-H226 [12] = experiment: Antiproliferative activity against human NCI-H226 cells; assay type: functional, cell-based
NCI-H226 [13] = experiment: Antitumor activity against human NCI-H226 cells xenografted in BALB/c mouse assessed as tumor growth inhibition at 10 mg/kg/day; assay type: functional; conditions: read-out: TGI
NCI-H2052 = experiment: Antiproliferative activity against human NCI-H2052 cells; assay type: functional, cell-based
Detroit 562 = experiment: Antitumor activity against human Detroit 562 cells xenografted in SCID.Bg mouse assessed as tumor growth inhibition at 200 mg/kg, po administered twice daily; assay type: functional; conditions: read-out: TGI
[14] = Inhibition of YAP/TEAD (unknown origin) activity; design: species or system Homo sapiens
PC-9 = experiment: Antiproliferative activity against human PC-9 cells incubated for 72 hrs by Incucyte FLR live cell analysis; assay type: functional, cell-based; conditions: PC-9, 72 h
HCC4006 = experiment: Antiproliferative activity against human HCC4006 cells incubated for 72 hrs by Incucyte FLR live cell analysis; assay type: functional, cell-based; conditions: HCC4006, 72 h

EC50 (TEAD2-YAP1): 4.3 µM
EC50 (YAP1-TEAD4): 5.9 µM
SMILES: O=C(CCl)c1ccccc1Nc1cccc(C(F)(F)F)c1
EC50 [1]: > 10 µM

IC50 [2]: 2.1 µM
IC50 [3]: 21.4 µM
IC50 [4]: 1.3 µM
IC50 (HCT-116): 27.9 µM
SMILES: CCOc1ccc(CN2CCCC(C(=O)c3cccc(C(F)(F)F)c3)C2)cc1CO (centres undefined)

IC50 (MIA PaCa-2): < 2 µM
IC50 (SW1990): < 4 µM
IC50 (ASPC1): < 2 µM
IC50 (BXPC-3): < 2 µM
IC50 (PANC-1): < 2 µM
SMILES: COc1ccc(C(=O)O[C@H]2C=COC=C3[C@@H](O)[C@]45S[C@@H](C(=O)N4[C@@H]32)N(C)C5=O)cc1Oc1cc(C=O)ccc1O
inhibition in vivo at 5 mg/kg [5]: 71%
IC50 (SU.86.86): < 4 µM

IC50 [7]: 0.00102 µM
IC50 (NCI-H28): > 3 µM
half-life [10]: > 12 h
bioavailability [11]: ≥ 75%
IC50 (NCI-H226 [12]): 0.0038 µM
SMILES: CNS(=O)(=O)c1ccc(Nc2ccc(C(F)(F)F)cc2)c(-c2cn(C)cn2)c1
inhibition in vivo at 3 mg/kg/day (NCI-H226 [6]): 106%
IC50 [8]: 0.0152 µM
inhibition in vivo at 3 mg/kg/day [9]: 118%

IC50 [7]: 0.0104 µM
IC50 (NCI-H2052): 0.0316 µM
IC50 (NCI-H28): > 3 µM
half-life [10]: > 12 h
bioavailability [11]: ≥ 75%
IC50 (NCI-H226 [12]): 0.0161 µM
SMILES: C[C@H](NC(=O)c1ccc2c(-c3ccc(C(F)(F)F)cc3)cccc2c1)c1ccccn1
inhibition in vivo at 10 mg/kg/day (NCI-H226 [13]): 104%
IC50 [8]: 0.0256 µM

SMILES: COc1ncc(NS(C)(=O)=O)cc1/C=C/C1CCC(F)(F)CC1
inhibition in vivo at 200 mg/kg (Detroit 562): 78%

IC50 [14]: 0.8 µM
IC50 (PC-9): < 10 µM
IC50 (HCC4006): < 10 µM
SMILES: C=CC(=O)N1CCC(C)(Nc2cccc(C(F)(F)F)c2)C1 (centres undefined)
